Data as given in US6447767B1, “Non-myeloablative tolerogenic treatment” (Hadasit Medical Research Services and Development Ltd., priority 1997, dated 2002).
Values joined by “and” are separate entries in the source; they are usually repeats but may differ in a detail not shown here. Equal values may be shown once. Read-outs that look alike come from different tables or passages of the source.

What was measured:
[1] = system: Lewis rat skin xenografts
Protocol: The basic protocol for conditioning prior to transplantation included sTLI (1-6 daily exposures of 200 cGy) to a total dose of up to 1,200 cGy, followed by intravenous inoculation with 3×10^7 BMC on the day after the last TLI dose. […] One day after BMC infusion, experimental mice were injected with 200 mg/kg Cy (Taro, Israel) intraperitoneally. Cy was freshly dissolved in sterile phosphate-buffered saline prior to injection. […] A second infusion of donor, after Cy, was also administered in some of the mice.
Skin grafting was carried out 20 days after completion of the tolerogenic treatment. A full-thickness skin graft measuring 1 cm×1 cm was adjusted to the graft bed by 4 Thomas surgery clips (Thomas Scientific, USA). The panniculus camosus was kept intact in the graft bed. The graft was considered to be accepted when hair of donor color grew on the soft flexible underlying skin, and rejected when donor epithelium was lost.
Two groups of mice were administered sTLI of 6 fractions of 200 cGy/day. After sTLI conditioning, both groups were administered 30×10^6 non-T cell depleted Lewis rat BMC intravenously. The first group was given a single dose of 200 mg/kg Cy the next day. Another 3×10^7 non T cell depleted rat BMC were administered the following day. In the second group, a dose of 60 mg/kg Cy was given daily for 3 days in contrast to the single 200 mg/kg dose given the first group. The first dose of Cy was given 10 hours after the first rat BMC inoculation, the second dose at 24 hours and the third dose at 48 hours (see below). After administration of three doses of 60 mg/kg Cy, a second inoculation of 3×10^7 non T cell depleted rat BMC were administered.

[2] = system: metastatic solid tumors / lymphoma; assay: AlloCT with rIL-2 activated mismatched lymphocytes plus tumor-specific antibodies (case reports); format: in vivo, human; conditions: single patients; antibody given with rIL-2 activated haploidentically mismatched lymphocytes
Description: Donor-derived anti-cancer effector lymphocytes consisted of rIL-2 activated cells (four days activation with rIL-26,000 IU/ml) or using donor lymphocytes activated in vitro against irradiated tumor cells or host alloantigens in one way mixed lymphocyte tumor reaction or using donor lymphocytes pre-cultured with irradiated parental or other family member expressing either one of the patient's haplotypes in one way mixed lymphocyte cultures (in order to induce effector cells against inherited paternal or maternal haplotypes, to maximize anti-host alloreactivity to be used as adoptive allogeneic cell therapy (alloCT). In order to maximize anti-cancer effects, patients can be immunosuppressed with Fludarabine 25 mg/m^2×5 days. […] Following cell infusion, patients receive subcutaneously rIL-2 6×10^6 IU/m^2 in an attempt to continue to activate in vivo donor anti-tumor reactive lymphocytes. Two weeks post cell therapy, patient may receive injections of alpha interferon 3×10^6 IU every other day subcutaneously as anti-proliferative and mostly as anti-angiogenic effects to minimize or jeopardize tumor cell growth from residual tumor cells escaping alloCT.
The alloCT course was done according to the scheme described.
Both cycles of alloCT were followed with SC injections of r-IL2 6×10^6 IU for five days.

[3] = system: BALB/c mouse spleen cells; assay: Mitogen-induced T cell proliferation ([3H]-thymidine incorporation); format: cell-based
Protocol: Mitogen-induced T cell proliferative responses were measured by culturing spleen cells in the presence of the T cell mitogens concanavalin A (ConA, 10 μg/ml) or phytohemagglutinin (PHA, 1 μg/ml) for three days. [^3H]-thymidine was added to the cultures for the last 6 hours of culture and T cell proliferation was measured in terms of counts per minute (cpm) of [^3H]-thymidine incorporated into the DNA of the cells using cell harvesting and radioactivity techniques known to those in the art.
BALB/c spleen cells were cultured for 30 minutes at 37° C. in tissue culture medium containing 100 μg/ml of ASTA-Z and then tested for in vitro T cell responses.

[4] = system: murine P815 tumor target cells; conditions: BALB/c SP or BM cells, ASTA-Z then rIL-2 6,000 IU/ml 4 days (FIG. 19)
Protocol: (§1) Human peripheral blood mononuclear cell (PBMC) and murine spleen or bone marrow populations were tested for their ability to lyse NK-sensitive target cells (human K562 and murine YAC-1 cells) and NK-resistant, activated NK-sensitive target cells (human Daudi and murine P815 cells) using standard ^51Cr-release assays. Briefly, ^51 Cr-labeled target cells were incubated at 37° C. with PBMC effector cells at various target cell to effector cell ratios for 4 hours. At the end of the incubation, the cells were pelleted by centrifugation and equal aliquots of supernatant were removed from each assay culture well and counted for radioactivity. Percent lysis was calculated by the following formula: [formula]
(§2) They were then harvested and tested for cytolytic activity in standard ^51Cr-release assays. While YAC-1 cells are sensitive to lysis by both NK and activated NK cells, P815 cells are not sensitive to lysis by NK cells but are sensitive to activated NK cells. […] While K562 cells are sensitive to lysis by both NK and activated NK cells, Daudi cells are not sensitive to NK cells but are sensitive to activated NK cells.

[5] = system: murine YAC-1 tumor target cells; conditions: BALB/c SP or BM cells, ASTA-Z then rIL-2 6,000 IU/ml 4 days (FIG. 18)
Protocol: as §1, §2

[6] = GVHD induction by B6 spleen cells in sublethally irradiated BALB/c mice; format: in vivo; conditions: B6 spleen cells 30 min with 100 μg/ml, 25×10^6 per mouse, BALB/c 600 cGy (FIG. 21)
Protocol: (§3) Recipients were monitored for survival and clinical signs of GVHD such as ruffled fur, diarrhea, and measurable weight loss. […], samples of liver and lung sections were obtained form each mouse to test for histological evidence of GVHD. Histological preparations were analyzed by an independent pathologist on a double blind basis.
(§4) In parallel murine experiments, culture of B6 bone marrow for 30 minutes with ASTA-Z (100 μg/ml) prior to injection (25×10^6 per mouse) into lethally irradiated (1,100 cGy of TBI) SJL/J mice reduced the capacity of the bone marrow cells to induce GVHD (FIG. 20). Similarly, culture of B6 spleen cells for 30 minutes with ASTA-Z (100 μg/ml) prior to injection (25×10^6 per mouse) into sublethally irradiated BALB/c mice (600 cGy) reduced the capacity of the spleen cells to induce GVHD (FIG. 21).

Daudi target cells = assay: 51Cr-release lysis by killer cells generated from human PBMC with rIL-2; format: cell-based
Protocol: (§5) Percent lysis was calculated by the following formula: [formula]

K562 target cells = assay: as above; format: cell-based
Protocol: as §5

[7] = GVHD induction by B6 bone marrow in lethally irradiated SJL/J mice; format: in vivo; conditions: B6 BM 30 min with 100 μg/ml, 25×10^6 per mouse, SJL/J 1,100 cGy TBI (FIG. 20)
Protocol: as §3, §4

[8] = sTLI, rat BMC, single 200 mg/kg Cy, second rat BMC
[9] = ASTA-Z treated PBMC cultured with IL-2 6,000 IU/ml, target:effector 1:100
[10] = human PBMC, ASTA-Z then rIL-2 6,000 IU/ml 4 days

Molecule: O=P1(N(CCCl)CCCl)NCCCO1 (centres unmarked) [Cy, cyclophosphamide]
- recipients that developed lethal GVHD ([1]; Cy 3 × 60 mg/kg, of the 15 recipients that accepted xenografts): 5
- Skin Graft Acceptance ([1]; sTLI, rat BMC, Cy 60 mg/kg at 10 h, 24 h, 48 h, second rat BMC): 15 of 20 and 15/20
- Lethal GVHD [1, 8]: in most of the recipients
- Skin Graft Acceptance [1, 8]: 0/6
- Skin Xenograft Survival Time [1, 8]: <20 days

Molecule: MabThera: monoclonal anti-CD20 antibodies
- clinical outcome [2]: no evidence of disease

Molecule: mafosphamide [ASTA-Z]
- in vitro proliferative responses to the T cell mitogens ConA and PHA ([3]; 100 μg/ml, 30 minutes, 37°C): elimination
- Cell Proliferation, Con-A ([3]; BALB/c spleen cells, ASTA-Z 100 μg/ml 30 min 37°C and/or IL-2 1,000 IU/ml, ConA 10 μg/ml): 2,980 cpm
- Cell Proliferation, PHA ([3]; BALB/c spleen cells, ASTA-Z 100 μg/ml 30 min 37°C and/or IL-2 1,000 IU/ml, PHA 1 μg/ml): 5,118 cpm
- Cell Proliferation, No Mitogens ([3]; BALB/c spleen cells, ASTA-Z 100 μg/ml 30 min 37°C and/or IL-2 1,000 IU/ml, no mitogen): 219 cpm
- effect of added IL-2 on inhibition of responsiveness to the mitogens ([3]; IL-2 1,000 IU/ml added to cultures of spleen cells and ASTA-Z): did not overcome inhibition
- generation of killer cells capable of killing P815 target cells [4]: did not decrease
- generation of killer cells capable of killing YAC-1 target cells [5]: did not decrease
- capacity of the spleen cells to induce GVHD [6]: reduced
- Lysis of Daudi target cells (percentage of 51Cr released) (Daudi target cells; [9]): 42% and 71%
- generation of killer cells capable of killing Daudi target cells (Daudi target cells; [10]): did not decrease
- Lysis of K562 target cells (percentage of 51Cr released) (K562 target cells; [9]): 52% and 48%
- generation of killer cells capable of killing K562 target cells (K562 target cells; [10]): did not decrease
- capacity of the bone marrow cells to induce GVHD [7]: reduced

B1: Panorex: anti-epithelial cell antibodies, anti-17A (antibody, chains of the INN, looked up, V domains shown)
VH: QVQLQQSGAELVRPGTSVKVSCKASGYAFTNYLIEWVKQRPGQGLEWIGVINPGSGGTNYNEKFKGKATLTADKSSSTAYMQLSSLTSDDSAVYFCARDGPWFAYWGQGTLVTVSA
VL: NIVMTQSPKSMSMSVGERVTLTCKASENVVTYVSWYQQKPEQSPKLLIYGASNRYTGVPDRFTGSGSATDFTLTISSVQAEDLADYHCGQGYSYPYTFGGGTKLEIK
- clinical outcome [2]: no evidence of disease
